Assay results from patent US20230295197A1, “STAT5 and STAT6 Degraders and Uses Thereof” (REGENTS OF THE UNIVERSITY OF MICHICAN, priority 2022, published 2023).
Read-outs that look alike come from different tables or passages of the source. *1 amine or outer side, *2 acyl side, *3 side chain or, on linkers, in order; H or OH if unused. Where a SMILES comes first, the peptide text is derived from it. [ ]: non-standard residue; d: D form. The star is where a group is joined. Benzothienyl2CO(5-CF2PO3H2) = O=C(c1cc2cc(C(F)(F)P(=O)(O)O)ccc2s1)*; βAla(N-(4-Br-phenyl)) = O=C(CCN(c1ccc(Br)cc1)[*:1])[*:2]; NHBn(4-(4-Me-thiazol-5-yl)) = Cc1ncsc1-c1ccc(CN*)cc1; Hyp = O=C(O)[C@@H]1C[C@@H](O)CN1; Tle = CC(C)(C)[C@H](N)C(=O)O; Ahp = NCCCCCCC(=O)O

Molecular target: T1, STAT6 (Homo sapiens, UniProt P42226)
T1 construct: endogenous in cells; host or cells: MOLM-16, KU-812, SKNO1, MB231, L1236
T1 sequence (P42226 1-847): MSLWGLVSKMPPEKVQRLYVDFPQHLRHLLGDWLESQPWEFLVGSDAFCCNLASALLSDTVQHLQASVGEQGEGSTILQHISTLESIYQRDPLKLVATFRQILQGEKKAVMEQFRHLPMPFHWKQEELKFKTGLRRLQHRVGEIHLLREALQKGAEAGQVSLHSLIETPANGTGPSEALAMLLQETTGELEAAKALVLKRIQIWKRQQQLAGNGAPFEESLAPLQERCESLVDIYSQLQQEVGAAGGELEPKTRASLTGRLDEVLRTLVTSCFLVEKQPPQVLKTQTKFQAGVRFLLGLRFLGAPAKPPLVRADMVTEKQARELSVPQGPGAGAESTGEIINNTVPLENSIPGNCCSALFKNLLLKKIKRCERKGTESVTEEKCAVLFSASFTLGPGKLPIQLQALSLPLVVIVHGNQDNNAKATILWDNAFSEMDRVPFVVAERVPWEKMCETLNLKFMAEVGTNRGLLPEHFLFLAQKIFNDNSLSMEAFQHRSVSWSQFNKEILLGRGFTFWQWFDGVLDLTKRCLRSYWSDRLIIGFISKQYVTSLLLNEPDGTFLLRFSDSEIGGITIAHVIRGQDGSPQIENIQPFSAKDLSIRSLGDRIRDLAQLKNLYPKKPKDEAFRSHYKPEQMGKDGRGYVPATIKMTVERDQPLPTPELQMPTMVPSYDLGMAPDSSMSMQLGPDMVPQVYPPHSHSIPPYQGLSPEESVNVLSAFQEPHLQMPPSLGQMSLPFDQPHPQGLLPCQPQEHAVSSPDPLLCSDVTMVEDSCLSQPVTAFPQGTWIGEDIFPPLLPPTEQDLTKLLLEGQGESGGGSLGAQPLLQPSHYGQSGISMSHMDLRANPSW
Test: Immunoblotting (Western blot) analysis of STAT6 degradation efficiency of degraders in treated cells
Type: cell-based
How it was run: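 ~1e6 cells/pt; cpd at indicated conc and duration; RIPA + protease/phosphatase inhibitors; BCA; 20-40 μg/lane Tris-glycine SDS-PAGE; PVDF; primary Ab 1:1000 o/n 4 °C; IRDye secondaries 1 h rt; infrared scan and densitometry; GAPDH loading ctrl.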

[1] = MOLM-16 cells, class symbols, read-out: DC50 S6 MOLM-16
[2] = L1236 cells, read-out: DC50 S6 L1236

Structure (SMILES)	DC50 [1] [µM]	DC50 [2] [µM]	DC50 (read-out: DC50 S6 MB231, MB231 cells) [µM]
CC(C)(C)[C@H](NC(=O)c1cc2cc(C(F)(F)P(=O)(O)O)ccc2s1)C(=O)N1Cc2cc(OCC(=O)NCCCCCC#Cc3ccc4c(c3)C(=O)N(C3CCC(=O)NC3=O)C4=O)ccc2C[C@H]1C(=O)N1CCO[C@H](c2ccccc2)C1 (stereo partly drawn) [Compound 544, ((2-(((2S)-1-((3S)-7-(2-((7-(2-(2,6-dioxopiperidin-3-yl)-1,3-dioxoisoindolin-5-yl)hept-6-yn-1-yl)amino)-2-oxoethoxy)-3-((R)-2-phenylmorpholine-4-carbonyl)-3,4-dihydroisoquinolin-2(1H)-yl)-3,3-dimethyl-1-oxobutan-2-yl)carbamoyl)benzo[b]thiophen-5-yl)difluoromethyl)phosphonic acid]	> 10	–	–
CC(C)(C)[C@H](NC(=O)c1cc2cc(C(F)(F)P(=O)(O)O)ccc2s1)C(=O)N1CCN(C(=O)CC(=O)NCCCCCCCCC#Cc2ccc3c(c2)C(=O)N(C2CCC(=O)NC2=O)C3=O)C[C@H]1C(=O)N1CCC[C@H](c2ccccc2)C1 (stereo partly drawn) [Compound 532, ((2-(((2S)-1-((2S)-4-(3-((10-(2-(2,6-dioxopiperidin-3-yl)-1,3-dioxoisoindolin-5-yl)dec-9-yn-1-yl)amino)-3-oxopropanoyl)-2-((R)-3-phenylpiperidine-1-carbonyl)piperazin-1-yl)-3,3-dimethyl-1-oxobutan-2-yl)carbamoyl)benzo[b]thiophen-5-yl)difluoromethyl)phosphonic acid]	> 10	–	–
Cc1ncsc1-c1ccc([C@H](C)NC(=O)[C@@H]2C[C@@H](O)CN2C(=O)[C@@H](NC(=O)CCCCCCCCCNC(=O)COc2ccc3c(c2)CN(C(=O)[C@@H](NC(=O)c2cc4cc(C(F)(F)P(=O)(O)O)ccc4s2)C(C)(C)C)[C@H](C(=O)N2CCO[C@H](c4ccccc4)C2)C3)C(C)(C)C)cc1 [Compound 469, (difluoro(2-(((S)-1-((S)-7-(2-((10-(((S)-1-((2S,4R)-4-hydroxy-2-(((S)-1-(4-(4-methylthiazol-5-yl)phenyl)ethyl)carbamoyl)pyrrolidin-1-yl)-3,3-dimethyl-1-oxobutan-2-yl)amino)-10-oxodecyl)amino)-2-oxoethoxy)-3-((R)-2-phenylmorpholine-4-carbonyl)-3,4-dihydroisoquinolin-2(1H)-yl)-3,3-dimethyl-1-oxobutan-2-yl)carbamoyl)benzo[b]thiophen-5-yl)methyl)phosphonic acid]	> 10	> 10	–
CC(C)(C)[C@H](NC(=O)c1cc2cc(C(F)(F)P(=O)(O)O)ccc2s1)C(=O)N1Cc2cc(OCC(=O)NCC#Cc3ccc4c(c3)C(=O)N(C3CCC(=O)NC3=O)C4=O)ccc2C[C@H]1C(=O)N1CCC[C@H](c2ccccc2)C1 (stereo partly drawn) [Compound 550, ((2-(((2S)-1-((3S)-7-(2-((3-(2-(2,6-dioxopiperidin-3-yl)-1,3-dioxoisoindolin-5-yl)prop-2-yn-1-yl)amino)-2-oxoethoxy)-3-((R)-3-phenylpiperidine-1-carbonyl)-3,4-dihydroisoquinolin-2(1H)-yl)-3,3-dimethyl-1-oxobutan-2-yl)carbamoyl)benzo[b]thiophen-5-yl)difluoromethyl)phosphonic acid]	> 10	–	–
CC(C)(C)[C@H](NC(=O)c1cc2cc(C(F)(F)P(=O)(O)O)ccc2s1)C(=O)N1Cc2cc(OCC(=O)NCCCC#Cc3ccc4c(c3)C(=O)N(C3CCC(=O)NC3=O)C4=O)ccc2C[C@H]1C(=O)N1CCO[C@H](c2ccccc2)C1 (stereo partly drawn) [Compound 540, ((2-(((2S)-1-((3S)-7-(2-((5-(2-(2,6-dioxopiperidin-3-yl)-1,3-dioxoisoindolin-5-yl)pent-4-yn-1-yl)amino)-2-oxoethoxy)-3-((R)-2-phenylmorpholine-4-carbonyl)-3,4-dihydroisoquinolin-2(1H)-yl)-3,3-dimethyl-1-oxobutan-2-yl)carbamoyl)benzo[b]thiophen-5-yl)difluoromethyl)phosphonic acid]	> 10	–	–
Cc1ncsc1-c1ccc([C@H](C)NC(=O)[C@@H]2C[C@@H](O)CN2C(=O)[C@@H](NC(=O)CCCCNC(=O)CO[C@H]2C[C@@H](C(=O)N3CCC[C@H](c4ccccc4)C3)N(C(=O)[C@@H](NC(=O)c3cc4cc(C(F)(F)P(=O)(O)O)ccc4s3)C(C)(C)C)C2)C(C)(C)C)cc1 [Compound 437, (difluoro(2-(((S)-1-((2S,4S)-4-(2-((5-(((S)-1-((2S,4R)-4-hydroxy-2-(((S)-1-(4-(4-methylthiazol-5-yl)phenyl)ethyl)carbamoyl)pyrrolidin-1-yl)-3,3-dimethyl-1-oxobutan-2-yl)amino)-5-oxopentyl)amino)-2-oxoethoxy)-2-((R)-3-phenylpiperidine-1-carbonyl)pyrrolidin-1-yl)-3,3-dimethyl-1-oxobutan-2-yl)carbamoyl)benzo[b]thiophen-5-yl)methyl)phosphonic acid]	> 10	> 10	–
Cc1ncsc1-c1ccc([C@H](C)NC(=O)[C@@H]2C[C@@H](O)CN2C(=O)[C@@H](NC(=O)CCCNC(=O)CC(=O)N2CCN(C(=O)[C@@H](NC(=O)c3cc4cc(C(F)(F)P(=O)(O)O)ccc4s3)C(C)(C)C)[C@H](C(=O)N3CCO[C@H](c4ccccc4)C3)C2)C(C)(C)C)cc1 [Compound 445, (difluoro(2-(((S)-1-((S)-4-(3-((4-(((S)-1-((2S,4R)-4-hydroxy-2-(((S)-1-(4-(4-methylthiazol-5-yl)phenyl)ethyl)carbamoyl)pyrrolidin-1-yl)-3,3-dimethyl-1-oxobutan-2-yl)amino)-4-oxobutyl)amino)-3-oxopropanoyl)-2-((R)-2-phenylmorpholine-4-carbonyl)piperazin-1-yl)-3,3-dimethyl-1-oxobutan-2-yl)carbamoyl)benzo[b]thiophen-5-yl)methyl)phosphonic acid]	> 10	> 10	–
Cc1cc([C@H](C(=O)N2C[C@H](O)C[C@H]2C(=O)N[C@@H](CC(=O)NCCCCCCCCNC(=O)CO[C@@H]2C[C@@H](C(=O)N(C)c3ccc(Br)cc3)N(C(=O)[C@@H](NC(=O)c3cc4cc(C(F)(F)P(=O)(O)O)ccc4s3)C(C)(C)C)C2)c2ccc(-c3scnc3C)cc2)C(C)C)on1 [Compound 423, ((2-(((S)-1-((2S,4R)-2-((4-bromophenyl)(methyl)carbamoyl)-4-(2-((8-((S)-3-((2S,4R)-4-hydroxy-1-((R)-3-methyl-2-(3-methylisoxazol-5-yl)butanoyl)pyrrolidine-2-carboxamido)-3-(4-(4-methylthiazol-5-yl)phenyl)propanamido)octyl)amino)-2-oxoethoxy)pyrrolidin-1-yl)-3,3-dimethyl-1-oxobutan-2-yl)carbamoyl)benzo[b]thiophen-5-yl)difluoromethyl)phosphonic acid]	> 10	–	–
CC(C)(C)[C@H](NC(=O)c1cc2cc(C(F)(F)P(=O)(O)O)ccc2s1)C(=O)N1CCN(C(=O)CC(=O)NCCCCCCCCCC#Cc2ccc3c(c2)C(=O)N(C2CCC(=O)NC2=O)C3=O)C[C@H]1C(=O)N1CCC[C@H](c2ccccc2)C1 (stereo partly drawn) [Compound 534, ((2-(((2S)-1-((2S)-4-(3-((11-(2-(2,6-dioxopiperidin-3-yl)-1,3-dioxoisoindolin-5-yl)undec-10-yn-1-yl)amino)-3-oxopropanoyl)-2-((R)-3-phenylpiperidine-1-carbonyl)piperazin-1-yl)-3,3-dimethyl-1-oxobutan-2-yl)carbamoyl)benzo[b]thiophen-5-yl)difluoromethyl)phosphonic acid]	> 10	–	–
CC(C)(C)[C@H](NC(=O)c1cc2cc(C(F)(F)P(=O)(O)O)ccc2s1)C(=O)N1CCN(C(=O)CC(=O)NCCC#Cc2ccc3c(c2)C(=O)N(C2CCC(=O)NC2=O)C3=O)C[C@H]1C(=O)N1CCC[C@H](c2ccccc2)C1 (stereo partly drawn) [Compound 524, ((2-(((2S)-1-((2S)-4-(3-((4-(2-(2,6-dioxopiperidin-3-yl)-1,3-dioxoisoindolin-5-yl)but-3-yn-1-yl)amino)-3-oxopropanoyl)-2-((R)-3-phenylpiperidine-1-carbonyl)piperazin-1-yl)-3,3-dimethyl-1-oxobutan-2-yl)carbamoyl)benzo[b]thiophen-5-yl)difluoromethyl)phosphonic acid]	> 10	–	–
Cc1ncsc1-c1ccc(CNC(=O)[C@@H]2C[C@@H](O)CN2C(=O)[C@@H](NC(=O)CCCCCCNC(=O)CCN(C(=O)[C@@H]2CCCN2C(=O)[C@@H](NC(=O)c2cc3cc(C(F)(F)P(=O)(O)O)ccc3s2)C(C)(C)C)c2ccc(Br)cc2)C(C)(C)C)cc1 [Compound 399] ({Benzothienyl2CO(5-CF2PO3H2)}-[Tle]P[βAla(N-(4-Br-phenyl))][Ahp][Tle][Hyp]-{NHBn(4-(4-Me-thiazol-5-yl))})	–	–	> 10
